melting point [°C]	Structure (SMILES)
175	COc1ccc(C(N)=O)cc1[N+](=O)[O-]
133	CC(=O)C(=Cc1ccccc1)C(=O)OC1CC(C)CCC1C(C)C (stereo unspecified)
198 to 202	c1ccc2cc3c(cc2c1)nnc1ncnn13
234	O=C(Nc1cccc([N+](=O)[O-])c1)Nc1cccc([N+](=O)[O-])c1
19	CN(C)C(C)(C)CO
-31	CCCCCCNC
176	Cc1ccc(C(=O)C2=NN(c3ccccc3)C3C(=O)N(c4cccc([N+](=O)[O-])c4)C(=O)C23)cc1 (stereo unspecified)
103 to 104	CC(C)NC(=O)C(C)C
86 to 89	CCOC(=O)c1c(-c2ccco2)csc1N
159 to 161	O=Cc1ccc2[nH]cnc2c1
180	NS(=O)(=O)c1ccc(N2CCCCS2(=O)=O)cc1
152	Cc1ccc(-n2c(C)nc3cc([N+](=O)[O-])ccc32)cc1
98	O=C(O)c1cc(F)c(F)c(F)c1
74	O=C(O)C1Cc2ccccc21 (stereo unspecified)
-122	CCSC(C)C
117	Fc1c(F)c(F)c(P(c2c(F)c(F)c(F)c(F)c2F)c2c(F)c(F)c(F)c(F)c2F)c(F)c1F
147 to 148	Cc1cc(C)c(C2(C)CC(C(=O)c3cc4ccccc4o3)C2)c(C)c1 (stereo unspecified)
128	CCC(OC(N)=O)C1CCCCC1 (stereo unspecified)
-26	CCCCCCCCCCS
133 to 135	Cc1c(-c2ccccc2)sc2ncnc(Cl)c12
157 to 158	O=C(Cl)c1cc2cc([N+](=O)[O-])ccc2s1

melting point [°C]	Structure (SMILES)
180	CC12CCC(=O)C=C1CCC1C2CCC2(C)CCCC12O (stereo unspecified)
112	CC(C)(C)OC(=O)N[C@@H]1CC[C@H](C(=O)O)C1
1.6	Cc1ccc(C)c(Cl)c1
274 to 275	O=C(O)c1cc2cc([N+](=O)[O-])ccc2o1
164	CC12CCC(CC/C1=N\O)C2(C)C (stereo unspecified)
145 to 146	COc1ccccc1-c1ccc(C=C(C(C)=O)C(C)=O)o1
58 to 60	CCOC(=O)c1cc(C)nc(Cl)c1C#N
114 to 118	O=C1CC2C(CC(O)C2CO)O1 (single isomer, unassigned; (-))
-36.7	CCCCCCCCC(=O)OCC
218 to 219	Cc1nn(C)c(C)c1C(=O)O
79	COc1ccc(O)c([N+](=O)[O-])c1
197 to 202	O=C(O)C=Cc1ccccc1C(=O)O
189	O=[N+]([O-])c1c(O)cc(O)cc1O
260 to 262	O=C(O)c1ccc(Cn2cnc3ccccc32)cc1
179	Cc1ccc(NN=c2c(C)nc3ccccc3[nH]c2=O)cc1
234	Cc1ccnc(NS(=O)(=O)c2ccc(N)cc2)n1
164	O=C(C=Cc1ccc([N+](=O)[O-])cc1)c1ccccc1
159 to 160	FC(F)(F)c1ccc(=S)[nH]c1
-82	CCCC(C)(O)CCC
142	O=C(NCO)c1cccnc1
130	CCOC(=O)C(C#N)=NO

melting point [°C]	Structure (SMILES)
86	COc1cc2c(cc1C(C)C)C(C(=O)O)C2 (stereo unspecified)
213 to 214	O=C(O)c1ccc2sccc2c1
171	Cc1onc2c(-c3ccc(Cl)cc3)nnc(-c3ccccc3)c12
279 to 281	Cc1ccnc(Nc2nc3ccccc3[nH]2)c1
50 to 53	O=[N+]([O-])c1cccc(OCCN2CCOCC2)c1
109	COc1ccc(C(O)(c2cc(OC)c(OC)c(OC)c2)c2ccc(OC)cc2OC)c(OC)c1
66	CCC(C)[C@@H]1NC(=O)OC1=O (stereo partly specified)
44	Fc1cccc(C(F)(F)F)c1CBr
95 to 97	CCCc1c(O)ccc(C(C)=O)c1N
76	CC(C)COC(=O)c1ccc(O)cc1
180	NS(=O)(=O)c1c(Cl)cc(Cl)cc1Cl
125 to 126	COc1ccc(C(=O)c2ccccc2Cl)cc1OC
76.5 to 78	OCc1cccc2ccsc12
38 to 39	O=Cc1cccc(-n2cccn2)c1
160	CC(C=CC1(O)C(C)=CC(=O)CC1(C)C)=CC(=O)O (stereo unspecified)
201 to 203	O=c1c(Cl)c(Cl)cnn1-c1ccc(F)c(Cl)c1
158	c1ccc2c(c1)nnc1ccccc12
102 to 106	COc1ccc2c(c1)CC1(CCC(O)(c3ccc(C(C)(C)C)cc3)CC1)C2O (stereo unspecified)
238 to 240	OCc1cnc(S)n1Cc1ccccc1
201	CCOC(=O)C1=NN(c2ccccc2)C(=O)C1C(Br)C1(Br)C(=O)N(c2ccccc2)N=C1C(=O)OCC (stereo unspecified)
110	Cc1c(N/N=C(/C(=O)c2cccc3ccccc23)S(=O)(=O)c2ccccc2)c(=O)n(-c2ccccc2)n1C

melting point [°C]	Structure (SMILES)
161	Cc1cccc(N/N=C2/C(=O)N(c3ccccc3)N=C2C(F)(F)F)c1
115	COc1ccccc1C(=O)Oc1ccc(/C=C/C(=O)c2ccccc2)cc1
153 to 154	Cc1cccc(-n2cc[nH]c2=S)c1
260 to 261	Cc1cc(C)n(N=Cc2ccc([N+](=O)[O-])cc2)c(=O)c1C#N
241 to 242	COc1ccccc1Nc1[nH]c(=S)nnc1-c1ccccc1
78 to 81	COC(=O)CSCCC(N)=S
92	CC(C)[C@H](N)C(O)(c1ccccc1)c1ccccc1
85 to 86	BrCCOc1cccc2c1OCCO2
184	CC(C=CC=C(C)C=CC1=C(C)CC(O)CC1(C)C)=CC=CC=C(C)C=CC=C(C)C1C=C2C(C)(C)CC(O)CC2(C)O1 (stereo unspecified)
153 to 154	CC1=NN(c2ccccc2)C(=O)/C1=C\c1ccccc1O
256	CC(=O)N1C(=O)/C(=C/c2ccccc2)c2cc3c(cc21)N(C(C)=O)C(=O)/C3=C/c1ccccc1
238	CC(=NNC(N)=O)c1cccc(C(C)=NNC(N)=O)c1
-10.6	CCCCCCCOC(=O)CCCCCCC
148	NC(=O)C1CCNCC1
90	O=C(C=Cc1ccccc1)c1ccccc1O
22 to 24	O=C(c1ccc(F)cc1)c1ccccc1F
115 to 118	Cc1ccc(C)c(C(O)C(=O)O)c1 (stereo unspecified)
185	O=C(O)c1onc2ccccc12
259 to 260	O=C1c2ccccc2C(=O)N1c1cn[nH]c1
188 to 192	O=C1NC(CCO)C(=O)NC1CCO (stereo unspecified)

Structure (SMILES)	melting point [°C]
NNC(=O)c1ccc(Cl)cc1	164
Cc1ccc2cc3ccccc3cc2c1	209
CC(C)(O)C(Cl)(Cl)Cl	97
CSc1nc(NC(C)C)nc(NC(C)C)n1	119
COc1ccc2c(CCN)c[nH]c2c1	143 to 146
CCOC(=O)C(F)(F)C(F)(F)F	75.5
CC(CO)c1c(O)c(O)c2c(c1O)C(=O)C(O)=C1C(C)(C)CCCC12C (stereo unspecified)	237
CN1CCC23c4c5ccc(OCc6ccccc6)c4OC2C(O)C=CC3C1C5 (stereo unspecified)	132

Source: a melting point compilation (Tetko et al.)
